The target in assay [1] is T1, KIX-KID (Homo sapiens, UniProt Q92793).
T1 construct: made in house
Kind of assay: KIX-KID inhibition, split Renilla luciferase complementation (RLucC-KIX and KID-RLucN). It is filed as binding. The note with it: 4° C., 24 h. The method, then: RLucC-KIX (15 ng) and KID-RLucN-containing cell lysates (0.5 mg) were mixed together in Renilla luciferase lysis buffer (Promega, Madison, Wis.) in the presence of different concentrations of compounds. The final volume of the incubation mixture is 30 μL. The mixture was incubated at 4° C. for 24 h. Then Renilla luciferase activity was measured by combining 5 μL of incubation mixture with 30 μL of coelenterazine solution in PBS (pH 7.4, 10 μg/mL).

Assay [2] has as its system CREB-mediated gene transcription. Kind of assay: CREB reporter (pCRE-RLuc) assay in HEK 293T cells, forskolin-stimulated. Particulars: Homo sapiens, 5 h, read-out: CREB reporter inhibition (IC50). It is filed as cell-based. The method, then: HEK293T cells in a 10-cm plate were transfected with pCRE-RLuc (6.0 μg) using Lipofectamine™ 2000 (Invitrogen, Carlsbad, Calif.) according to manufacturer's protocol. After 3 h, the transfected cells were collected and replated into 96-well plates (1-2×10^4 cells/well). The cells were allowed to attach to the bottom of the wells for overnight, when compounds of different concentrations were added to the cells. Forskolin (final concentration of 10 μM, LC Laboratories, Woburn, Mass.) was added 30 min after the addition of the compounds. The cells were then incubated at 37° C. for 5 h. The media in the wells were removed and the cells were then lysed in 30 μL of 1×Renilla luciferase lysis buffer (Promega, Madison, Wis.). To measure Renilla luciferase activity, five μL of the lysate was combined with 30 μL of benzyl-coelenterazine (Nanolight, Pinetop, Ariz.) solution in PBS (pH 7.4, 10 μg/mL). The sample protein concentration was determined by Dye Reagent Concentrate (Bio-Rad, Hercules, Calif.). The Renilla luciferase activity was normalized to protein content in each well and expressed as relative luciferase unit/μg protein (RLU/μg protein). The IC50 was derived from non-linear regression analysis of the RLU/μg protein-concentration curve in Prism 5.0 (La Jolla, Calif.).

Assay [3] deals with MDA-MB-231 (human breast cancer cells). Put plainly: MTT cell growth inhibition, 72 h, MDA-MB-231. It is filed as cell-based. Particulars: MDA-MB-231, 72 h, read-out: MDA-MB-231 (GI50). The method, then:
(§1) A549 (human lung cancer cells), MCF-7 (human breast cancer cells), MDA-MB-231 (human breast cancer cells) and MDA-MB-468 cells (human breast cancer cells) were maintained in Dulbecco's modified Eagle medium (DMEM, Invitrogen, Carlsbad, Calif.) supplemented with 10% (v/v) fetal calf serum (Sigma, St. Louis, Mo.), 10 μg/mL penicillin and 10 μg/mL streptomycin (Invitrogen, Carlsbad, Calif.) at 37° C. under 5% CO2. On the day of experiment, different concentrations of the drugs (final concentration 10^−8-10^−4 M) in duplicates were added to the cells and the cells were further incubated for 72 h. Then, the number of live cells was quantified by 3-(4,5-dimethyl-2-thiazolyl)-2,5-diphenyl-2H-tetrazolium bromide (MTT reagent, Sigma, St. Louis, Mo.).
(§2) The amount of reduced MTT formazan generated by live cells was determined by its absorbance at 570 nm after subtracting the background absorbance at 690 nm. The percent of cell growth was expressed as (A570(treated)−A570(initial))/(A570(vehicle treated)−A570(initial))*100, where A570(initial) represents initial cell population when drugs are added. The GI50 were derived from non-linear regression analysis of the dose-response curve using Prism 4.0 (GraphPad). […] Data were presented as mean±SD of at least two measurements in duplicates unless noted.

Assay [4] concerns MDA-MB-468 cells (human breast cancer cells). Put plainly: MTT cell growth inhibition, 72 h, MDA-MB-468. It is filed as cell-based. Particulars: MDA-MB-468, 72 h, read-out: MDA-MB-468 (GI50). The method, then: as §1, §2
Assay [5] has as its system MCF-7 (human breast cancer cells). Put plainly: MTT cell growth inhibition, 72 h, MCF-7. It is filed as cell-based. The note with it: MCF7, 72 h, read-out: MCF-7 (GI50). The method, then: as §1, §2
Assay [6] has as its system A549 (human lung cancer cells). Kind of assay: MTT cell growth inhibition, 72 h, A549. Particulars: A549, 72 h, read-out: A549 (GI50). It is filed as cell-based. The method, then: as §1, §2

Like-named read-outs stand apart in the source and are kept apart here.

T1 sequence (Q92793 587-666 limits assumed): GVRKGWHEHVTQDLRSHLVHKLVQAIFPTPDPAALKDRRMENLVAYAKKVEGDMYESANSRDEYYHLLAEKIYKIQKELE

As for `NCCCOc1cc2ccccc2cc1C(=O)Nc1ccc(Cl)cc1OC(=O)c1cc2ccccc2cc1OCCCN` [Compound 3, reference compound], the IC50 turned out to be 8020 ± 360 nM in assay [1] and 2270 ± 280 nM in assay [2] (HEK 293T, forskolin 10 μM).
On to `NCCCOc1nc2ccccc2cc1C(=O)NCCOc1nc2ccccc2cc1C(=O)Nc1ccc(Cl)cc1O` [Compound 8], for which the GI50 was 540 ± 130 nM in assay [3] and 290 ± 55 nM in assay [4]. Further, the IC50 in assay [2] (HEK-293T) is 4030 ± 200 nM.
For the molecule `O=C(Nc1ccc(Cl)cc1)c1cc2ccccc2cc1O` [Compound 1, reference compound], the IC50 in assay [1] turned out to be 2900 ± 810 nM; in assay [2] (HEK 293T, forskolin 10 μM), 2290 ± 310 nM. Further, the concentration for 50% growth inhibition (GI50) in assay [3] (MTT, mean±SD) stood at 2350 ± 600 nM; in assay [4] (MTT, mean±SD) it was 1460 ± 300 nM.
In the case of `NCCCOc1nc2ccccc2cc1C(=O)NCCOc1nc2ccccc2cc1C(=O)Nc1ccc(Cl)cc1F` [Compound 9], in assay [3], the GI50 amounted to 370 ± 250 nM. For the same molecule, in assay [2] (HEK-293T), the IC50 stood at 440 ± 340 nM.
As to `NCCCOc1cc2ccccc2cc1C(=O)NCCOc1nc2ccccc2cc1C(=O)Nc1ccc(Cl)cc1O` [Compound 6], the 50% growth inhibitory concentration (GI50) in assay [3] came to 190 ± 120 nM; in assay [4], 13 ± 2 nM. In addition, in assay [2] (HEK-293T), the IC50 came to 72 ± 9 nM.
Turning to `COc1cc2ccccc2cc1C(=O)Nc1ccccc1OC(=O)c1cc2ccccc2cc1OC` [Compound 2, reference compound], the IC50 in assay [1] amounted to 170 ± 120 nM; in assay [2] (HEK 293T, forskolin 10 μM), 1950 ± 1140 nM. Further, the GI50 in assay [3] (MTT, mean±SD) worked out at 23500 ± 2270 nM; in assay [5] (MTT, mean±SD) it was 3380 ± 490 nM; in assay [4] (MTT, mean±SD), 8130 ± 5470 nM; in assay [6] (MTT, mean±SD), 8780 ± 2550 nM.
Regarding `NCCCOc1nc2ccccc2cc1C(=O)NCCOc1cc2ccccc2cc1C(=O)Nc1ccc(Cl)cc1O` [Compound 7], the GI50 in assay [3] was determined as 840 ± 180 nM; in assay [5] it was 190 nM; in assay [4], 140 ± 24 nM; in assay [6], 640 nM. Also, the IC50 in assay [2] (HEK-293T) worked out at 170 ± 66 nM.

For the origin of these results see patent US9073820B2, “Pharmaceutical compositions comprising napthamides” (OREGON HEALTH & SCIENCE UNIVERSITY, priority 2011, dated 2015).
